Reference: ChEMBL document CHEMBL6109045, “Photosensitizer associated with efflux pump inhibitors as a strategy for photodynamic therapy against bacterial resistance” (2025)

Assays:
Bacillus subtilis = test: Antibacterial activity against Bacillus subtilis assessed as reduction in bacterial growth at 2 uM in presence of 22.5 J/cm2 light irradiation by photosensitization assay; type: functional
Staphylococcus aureus [1] = test: Antibacterial activity against Staphylococcus aureus ATCC 25923 assessed as reduction in bacterial growth at 5 ug/ml in presence of 97.65 J/cm2 light irradiation by photosensitization assay; type: functional; settings: dose 5 µg/ml
Staphylococcus aureus [2] = test: Antibacterial activity against Staphylococcus aureus ATCC 25923 assessed as reduction in bacterial growth at 50 ug/ml in presence of 58.49 J/cm2 light irradiation by photosensitization assay; type: functional; settings: dose 50 µg/ml
Pseudomonas aeruginosa [3] = test: Antibacterial activity against Pseudomonas aeruginosa ATCC 27853 assessed as reduction in bacterial growth at 50 ug/ml in presence of 58.4 J/cm2 light irradiation by photosensitization assay; type: functional; settings: dose 50 µg/ml
Pseudomonas aeruginosa [4] = test: Antibacterial activity against Pseudomonas aeruginosa ATCC 27853 assessed as reduction in bacterial growth at 50 ug/ml in presence of 97.65 J/cm2 light irradiation by photosensitization assay; type: functional; settings: dose 50 µg/ml
Klebsiella aerogenes = test: Antibacterial activity against Klebsiella aerogenes assessed as reduction in bacterial growth at 16 uM in presence of 54 J/cm2 light irradiation by photosensitization assay; type: functional
Escherichia coli [5] = test: Antibacterial activity against Escherichia coli ATCC 25922 assessed as reduction in bacterial growth in presence of 6 J/cm2 light irradiation by photosensitization assay; type: functional
Staphylococcus aureus [6] = test: Antibacterial activity against Staphylococcus aureus ATCC 25923 assessed as reduction in bacterial growth in presence of 6 J/cm2 light irradiation by photosensitization assay; type: functional
Acinetobacter baumannii [7] = test: Antibacterial activity against Acinetobacter baumannii ATCC BAA 747 assessed as reduction in bacterial growth at 2 uM in presence of 22.5 J/cm2 light irradiation by photosensitization assay; type: functional
Staphylococcus aureus [8] = test: Antibacterial activity against Staphylococcus aureus ATCC 29213 assessed as reduction in bacterial growth at 5 uM in presence of 18 J/cm2 light irradiation by photosensitization assay; type: functional
Enterococcus faecalis [9] = test: Antibacterial activity against Staphylococcus aureus ATCC 29212 assessed as reduction in bacterial growth at 14 uM in presence of 25 J/cm2 light irradiation by photosensitization assay; type: functional
Staphylococcus aureus [10] = test: Antibacterial activity against Staphylococcus aureus ATCC 29213 assessed as reduction in bacterial growth at 300 ug/ml in presence of 12 J/cm2 light irradiation by photosensitization assay; type: functional; settings: dose 300 µg/ml
Escherichia coli [11] = test: Antibacterial activity against Escherichia coli K12 assessed as reduction in bacterial growth at 20 uM in presence of 6 J/cm2 light irradiation by photosensitization assay; type: functional
Acinetobacter baumannii [12] = test: Antibacterial activity against Acinetobacter baumannii ATCC 17978 assessed as reduction in bacterial growth at 20 uM in presence of 6 J/cm2 light irradiation by photosensitization assay; type: functional
Staphylococcus aureus [13] = test: Antibacterial activity against methicillin-resistant Staphylococcus aureus ATCC 33591 assessed as reduction in bacterial growth at 20 uM in presence of 6 J/cm2 light irradiation by photosensitization assay; type: functional
Escherichia coli [14] = test: Antibacterial activity against Escherichia coli ATCC 25922 assessed as reduction in bacterial growth at 20 uM in presence of 100 J/cm2 light irradiation by photosensitization assay; type: functional
Staphylococcus aureus [15] = test: Antibacterial activity against Staphylococcus aureus ATCC 25923 assessed as reduction in bacterial growth at 20 uM in presence of 100 J/cm2 light irradiation by photosensitization assay; type: functional
Staphylococcus aureus [16] = test: Antibacterial activity against Staphylococcus aureus assessed as reduction in bacterial growth at 20 uM in presence of 80 J/cm2 light irradiation by photosensitization assay; type: functional
Pseudomonas aeruginosa [17] = test: Antibacterial activity against Pseudomonas aeruginosa ATCC 27853 assessed as reduction in bacterial growth at 10 to 20 ug/ml in presence of 18 J/cm2 light irradiation by photosensitization assay; type: functional; settings: dose 10-20 µg/ml
Enterococcus faecalis [18] = test: Antibacterial activity against Enterococcus faecalis assessed as reduction in bacterial growth at 16 uM in presence of 54 J/cm2 light irradiation by photosensitization assay; type: functional
Pseudomonas aeruginosa [19] = test: Antibacterial activity against Pseudomonas aeruginosa ATCC 27853 assessed as reduction in bacterial growth at 400 uM in presence of 72 J/cm2 light irradiation by photosensitization assay; type: functional
Staphylococcus aureus [20] = test: Antibacterial activity against Staphylococcus aureus […] assessed as reduction in bacterial growth at 64 ug/ml in presence of 18 J/cm2 light irradiation by photosensitization assay; type: functional; settings: dose 64 µg/ml
Staphylococcus aureus [21] = test: Antibacterial activity against Staphylococcus aureus MCC 2408 assessed as reduction in bacterial growth at 50 ug/ml in presence of 58.49 J/cm2 light irradiation by photosensitization assay; type: functional; settings: dose 50 µg/ml
Pseudomonas aeruginosa [22] = test: Antibacterial activity against Pseudomonas aeruginosa ATCC 27853 assessed as reduction in bacterial growth at 7000 ug/ml in presence of 18 J/cm2 light irradiation by photosensitization assay; type: functional; settings: dose 7000 µg/ml
Staphylococcus aureus [23] = test: Antibacterial activity against Staphylococcus aureus MCC 2408 assessed as reduction in bacterial growth at 400 uM in presence of 72 J/cm2 light irradiation by photosensitization assay; type: functional
Staphylococcus aureus [24] = test: Antibacterial activity against Staphylococcus aureus MCC 2408 assessed as reduction in bacterial growth at 16 uM in presence of 54 J/cm2 light irradiation by photosensitization assay; type: functional
Pseudomonas aeruginosa [25] = test: Antibacterial activity against Pseudomonas aeruginosa ATCC 27853 assessed as reduction in bacterial growth at 16 uM in presence of 54 J/cm2 light irradiation by photosensitization assay; type: functional
Staphylococcus aureus [26] = test: Antibacterial activity against Staphylococcus aureus MCC 2408 assessed as reduction in bacterial growth at 0.62 ug/ml in presence of 18 J/cm2 light irradiation by photosensitization assay; type: functional; settings: dose 0.62 µg/ml
Pseudomonas aeruginosa [27] = test: Antibacterial activity against Pseudomonas aeruginosa ATCC 27853 assessed as reduction in bacterial growth at 60 ug/ml in presence of 100 J/cm2 light irradiation by photosensitization assay; type: functional; settings: dose 60 µg/ml
Staphylococcus aureus [28] = test: Antibacterial activity against methicillin-resistant Staphylococcus aureus ATCC 33591 assessed as reduction in bacterial growth at 1 uM in presence of 8 J/cm2 light irradiation by photosensitization assay; type: functional
Staphylococcus aureus [29] = test: Antibacterial activity against methicillin-resistant Staphylococcus aureus ATCC 33591 assessed as reduction in bacterial growth at 8 uM in presence of 30 J/cm2 light irradiation by photosensitization assay; type: functional
Escherichia coli [30] = test: Antibacterial activity against Escherichia coli assessed as reduction in bacterial growth at 8 uM in presence of 30 J/cm2 light irradiation by photosensitization assay; type: functional
Staphylococcus aureus [31] = test: Antibacterial activity against Staphylococcus aureus ATCC 29213 assessed as reduction in bacterial growth at 8 uM in presence of 30 J/cm2 light irradiation by photosensitization assay; type: functional
Staphylococcus aureus [32] = test: Antibacterial activity against Staphylococcus aureus ATCC 29213 assessed as reduction in bacterial growth at 0.25 uM in presence of 8 J/cm2 light irradiation by photosensitization assay; type: functional
Staphylococcus aureus [33] = test: Antibacterial activity against Staphylococcus aureus assessed as reduction in bacterial growth at 200 ug/ml in presence of 180 J/cm2 light irradiation by photosensitization assay; type: functional; settings: dose 200 µg/ml
Escherichia coli [34] = test: Antibacterial activity against Escherichia coli assessed as reduction in bacterial growth at 100 uM in presence of 100 J/cm2 light irradiation by photosensitization assay; type: functional
Escherichia coli [35] = test: Antibacterial activity against Escherichia coli assessed as reduction in bacterial growth at 20 uM in presence of 80 J/cm2 light irradiation by photosensitization assay; type: functional, organism-based
Acinetobacter baumannii [36] = test: Antibacterial activity against Acinetobacter baumannii ATCC 17978 assessed as reduction in bacterial growth at 10 uM in presence of 22.5 J/cm2 light irradiation by photosensitization assay; type: functional
Acinetobacter baumannii [37] = test: Antibacterial activity against Acinetobacter baumannii ATCC 17978 assessed as reduction in bacterial growth at 2 uM in presence of 22.5 J/cm2 light irradiation by photosensitization assay; type: functional
Pseudomonas aeruginosa [38] = test: Antibacterial activity against Pseudomonas aeruginosa ATCC 27853 assessed as reduction in bacterial growth at 10 uM in presence of 100 J/cm2 light irradiation by photosensitization assay; type: functional

Cc1cc2nc3ccc(N(C)C)cc3[s+]c2cc1N.[Cl-] [TOLONIUM CHLORIDE]
log(activity) (Bacillus subtilis): >6
log(activity) (Staphylococcus aureus [1]): 2.66
log(activity) (Staphylococcus aureus [2]): 2.21
log(activity) (Pseudomonas aeruginosa [3]): 2.2
log(activity) (Pseudomonas aeruginosa [4]): 2.36
log(activity) (Klebsiella aerogenes): >8
log(activity) (Escherichia coli [5]): 0.08
log(activity) (Staphylococcus aureus [6]): 5.83
log(activity) (Acinetobacter baumannii [7]): 3

COc1cc(/C=C/C(=O)CC(=O)/C=C/c2ccc(O)c(OC)c2)ccc1O [CURCUMIN]
log(activity) (Staphylococcus aureus [8]): 7
log(activity) (Enterococcus faecalis [9]): 10

Cc1cc(N(C)C)cc2[s+]c3cc(N(C)C)cc(C)c3nc12.[Cl-]
log(activity) (Staphylococcus aureus [10]): 99%

CN(CCCOc1ccccc1NC(=O)Nc1ccc2ccccc2c1)CCN(C)c1ccc2nc3ccc(N(C)C)cc3[s+]c2c1.[Cl-]
log(activity) (Escherichia coli [11]): 3
log(activity) (Acinetobacter baumannii [12]): 3
log(activity) (Staphylococcus aureus [13]): 4

C[n+]1ccc(-c2c3nc(c(-c4cc[n+](C)cc4)c4ccc([nH]4)c(-c4cc[n+](C)cc4)c4ccc([nH]4)c(-c4cc[n+](C)cc4)c4nc2C=C4)C=C3)cc1 [TMPYP4]
log(activity) (Escherichia coli [14]): 7
log(activity) (Staphylococcus aureus [15]): 7
log(activity) (Staphylococcus aureus [16]): 7

CN(CCN(C)c1ccc2nc3ccc(N(C)C)cc3[s+]c2c1)C(=O)c1ccc(-c2cc3cc([N+](=O)[O-])ccc3[nH]2)cc1.Cl
log(activity) (Escherichia coli [11]): 6
log(activity) (Acinetobacter baumannii [12]): 4
log(activity) (Staphylococcus aureus [13]): 6

CN(C)c1ccc2nc3ccc(N(C)C)cc3[s+]c2c1.[Cl-] [METHYLENE BLUE ANHYDROUS]
log(activity) (Pseudomonas aeruginosa [17]): 6
log(activity) (Enterococcus faecalis [18]): 0.7
log(activity) (Pseudomonas aeruginosa [19]): 4.1
log(activity) (Staphylococcus aureus [20]): 6
log(activity) (Staphylococcus aureus [21]): 2.38
log(activity) (Pseudomonas aeruginosa [22]): 6
log(activity) (Staphylococcus aureus [23]): 7.3
log(activity) (Staphylococcus aureus [24]): 5
log(activity) (Pseudomonas aeruginosa [25]): 1.1
log(activity) (Staphylococcus aureus [26]): 6

O=[N+]([O-])c1ccc(-c2c3nc(c(-c4ccc([N+](=O)[O-])cc4)c4ccc([nH]4)c(-c4ccc([N+](=O)[O-])cc4)c4nc(c(-c5ccc([N+](=O)[O-])cc5)c5ccc2[nH]5)C=C4)C=C3)cc1
log(activity) (Pseudomonas aeruginosa [27]): 2

C1=Cc2nc1c(-c1ccccc1)c1ccc([nH]1)c(-c1ccccc1)c1nc(c(-c3ccccc3)c3ccc([nH]3)c2-c2ccccc2)C=C1
log(activity) (Escherichia coli [14]): 3
log(activity) (Staphylococcus aureus [15]): 5

CN(C)c1ccc2nc3ccc(N4CCN(CCCOc5ccccc5NC(=O)Nc5ccc6ccccc6c5)CC4)cc3[s+]c2c1.[Cl-]
log(activity) (Escherichia coli [11]): 3
log(activity) (Staphylococcus aureus [13]): 3

O=S(=O)(O)c1ccc(-c2c3nc(c(-c4ccc(S(=O)(=O)O)cc4)c4ccc([nH]4)c(-c4ccc(S(=O)(=O)O)cc4)c4nc(c(-c5ccc(S(=O)(=O)O)cc5)c5ccc2[nH]5)C=C4)C=C3)cc1
log(activity) (Escherichia coli [14]): 7
log(activity) (Staphylococcus aureus [15]): 7

Cc1cc(O)c2c(=O)c3c(O)cc(O)c4c5c(O)cc(O)c6c(=O)c7c(O)cc(C)c8c1c2c(c34)c(c78)c65 [HYPERICIN]
log(activity) (Staphylococcus aureus [28]): >0.6
log(activity) (Staphylococcus aureus [29]): >0.6
log(activity) (Escherichia coli [30]): 0.06
log(activity) (Staphylococcus aureus [31]): >6
log(activity) (Staphylococcus aureus [32]): >6

CC1=C(CCC(=O)O)c2cc3[nH]c(cc4nc(cc5[nH]c(cc1n2)c(C)c5C(C)O)C(C)=C4C(C)O)c(C)c3CCC(=O)O (stereo not drawn) [HEMATOPORPHYRIN]
log(activity) (Staphylococcus aureus [33]): >6
log(activity) (Escherichia coli [34]): <6

C[n+]1cccc(-c2c3nc(c(-c4ccc[n+](C)c4)c4ccc([nH]4)c(-c4ccc[n+](C)c4)c4nc(c(-c5ccc[n+](C)c5)c5ccc2[nH]5)C=C4)C=C3)c1
log(activity) (Escherichia coli [35]): 7
log(activity) (Escherichia coli [34]): 6

CN(CCN(C)c1ccc2nc3ccc(N(C)C)cc3[s+]c2c1)Cc1ccc(-c2cc3cc([N+](=O)[O-])ccc3[nH]2)cc1.Cl
log(activity) (Escherichia coli [11]): 4
log(activity) (Acinetobacter baumannii [12]): 5
log(activity) (Staphylococcus aureus [13]): 3

CCNc1cc2[s+]c3cc(NCC)c(C)cc3nc2cc1C.[Cl-]
log(activity) (Acinetobacter baumannii [36]): 3
log(activity) (Acinetobacter baumannii [37]): 6
log(activity) (Pseudomonas aeruginosa [38]): 3
